Assay [1] in a line: Induction of cardiogenesis in mouse embryonic stem cells assessed as enrichment of pacemaker like cardiomyocytes by patch clamp technique (reference value: 7%). Type of assay: functional, Embryonic stem cell. (Patch clamp records ionic current or voltage across a cell membrane.)
A short description of assay [2]: Induction of cardiogenesis in mouse embryonic stem cells assessed as enrichment of atrial like cardiomyocytes by patch clamp technique (reference value: 7%). Type of assay: functional, Embryonic stem cell.
A short description of assay [3]: Suppression of cardiogenesis in mouse embryonic stem cells assessed as ventricular like cardiomyocytes by patch clamp technique (reference value: 86%). Type of assay: functional, Embryonic stem cell.
A short description of assay [4]: Induction of cardiogenesis in mouse CGR8 cells assessed as cardiac troponin positive cells measured on day 5 +10+2 EB-derived cells by flow cytometry analysis (reference value: 11%). Type of assay: functional.
A short description of assay [5]: Induction of cardiogenesis in human embryonic stem cells by DAPI staining based immunofluorescence method relative to control. Type of assay: functional, Embryonic stem cell.
Assay [6] can be described thus: Induction of cardiogenesis in human embryonic stem cells assessed as as enrichment of pacemaker like cardiomyocytes (reference value: 21%). Type of assay: functional, Embryonic stem cell.
The subject of assay [7] is Danio rerio. The assay is described as follows: Inhibition of BMPR in zebra fish embryo assessed as dorsalization administered 3 hr post fertilization.
For assay [8], the target named is T1, Activin receptor type-1 (Homo sapiens, UniProt Q04771).
T1 sequence (Q04771 whole entry): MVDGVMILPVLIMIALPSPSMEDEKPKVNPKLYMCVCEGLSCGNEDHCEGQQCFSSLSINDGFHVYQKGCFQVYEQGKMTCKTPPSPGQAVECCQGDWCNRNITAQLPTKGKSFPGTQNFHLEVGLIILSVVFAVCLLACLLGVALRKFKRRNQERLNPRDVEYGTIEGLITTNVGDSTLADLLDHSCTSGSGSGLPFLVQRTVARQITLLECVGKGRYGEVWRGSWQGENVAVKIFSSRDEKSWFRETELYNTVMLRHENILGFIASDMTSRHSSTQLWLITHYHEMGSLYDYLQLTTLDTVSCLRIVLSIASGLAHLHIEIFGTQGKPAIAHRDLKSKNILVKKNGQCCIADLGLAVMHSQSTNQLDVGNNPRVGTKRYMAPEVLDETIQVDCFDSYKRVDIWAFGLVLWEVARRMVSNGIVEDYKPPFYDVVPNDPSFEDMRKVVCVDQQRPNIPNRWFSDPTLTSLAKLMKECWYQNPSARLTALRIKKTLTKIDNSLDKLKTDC
Kind of assay: Inhibition of human ALK2 in presence of (33P)gamma ATP.

For assay [9], the target named is T2, TGF-beta receptor type-1 (Homo sapiens, UniProt P36897).
T2 sequence (P36897 whole entry): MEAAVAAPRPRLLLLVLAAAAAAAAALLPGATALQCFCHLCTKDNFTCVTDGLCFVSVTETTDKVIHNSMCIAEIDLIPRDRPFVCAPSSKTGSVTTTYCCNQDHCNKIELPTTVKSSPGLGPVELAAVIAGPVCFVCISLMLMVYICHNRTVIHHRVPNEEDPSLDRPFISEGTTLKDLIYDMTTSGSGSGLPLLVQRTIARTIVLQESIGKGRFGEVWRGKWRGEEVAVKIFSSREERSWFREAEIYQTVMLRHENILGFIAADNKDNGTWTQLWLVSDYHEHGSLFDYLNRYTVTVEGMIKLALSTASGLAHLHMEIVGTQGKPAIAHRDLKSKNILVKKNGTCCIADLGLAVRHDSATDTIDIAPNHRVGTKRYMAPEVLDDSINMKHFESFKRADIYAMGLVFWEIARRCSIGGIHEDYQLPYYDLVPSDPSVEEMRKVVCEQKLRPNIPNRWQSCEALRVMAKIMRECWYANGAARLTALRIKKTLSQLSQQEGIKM
Kind of assay: Inhibition of human ALK5 in presence of (33P)gamma ATP.

Assay [10] addresses Vascular endothelial growth factor receptor 2 (Homo sapiens, UniProt P35968). The assay is described as follows: Inhibition of human KDR in presence of (33P)gamma ATP.

Sequence of Vascular endothelial growth factor receptor 2 (P35968 whole entry): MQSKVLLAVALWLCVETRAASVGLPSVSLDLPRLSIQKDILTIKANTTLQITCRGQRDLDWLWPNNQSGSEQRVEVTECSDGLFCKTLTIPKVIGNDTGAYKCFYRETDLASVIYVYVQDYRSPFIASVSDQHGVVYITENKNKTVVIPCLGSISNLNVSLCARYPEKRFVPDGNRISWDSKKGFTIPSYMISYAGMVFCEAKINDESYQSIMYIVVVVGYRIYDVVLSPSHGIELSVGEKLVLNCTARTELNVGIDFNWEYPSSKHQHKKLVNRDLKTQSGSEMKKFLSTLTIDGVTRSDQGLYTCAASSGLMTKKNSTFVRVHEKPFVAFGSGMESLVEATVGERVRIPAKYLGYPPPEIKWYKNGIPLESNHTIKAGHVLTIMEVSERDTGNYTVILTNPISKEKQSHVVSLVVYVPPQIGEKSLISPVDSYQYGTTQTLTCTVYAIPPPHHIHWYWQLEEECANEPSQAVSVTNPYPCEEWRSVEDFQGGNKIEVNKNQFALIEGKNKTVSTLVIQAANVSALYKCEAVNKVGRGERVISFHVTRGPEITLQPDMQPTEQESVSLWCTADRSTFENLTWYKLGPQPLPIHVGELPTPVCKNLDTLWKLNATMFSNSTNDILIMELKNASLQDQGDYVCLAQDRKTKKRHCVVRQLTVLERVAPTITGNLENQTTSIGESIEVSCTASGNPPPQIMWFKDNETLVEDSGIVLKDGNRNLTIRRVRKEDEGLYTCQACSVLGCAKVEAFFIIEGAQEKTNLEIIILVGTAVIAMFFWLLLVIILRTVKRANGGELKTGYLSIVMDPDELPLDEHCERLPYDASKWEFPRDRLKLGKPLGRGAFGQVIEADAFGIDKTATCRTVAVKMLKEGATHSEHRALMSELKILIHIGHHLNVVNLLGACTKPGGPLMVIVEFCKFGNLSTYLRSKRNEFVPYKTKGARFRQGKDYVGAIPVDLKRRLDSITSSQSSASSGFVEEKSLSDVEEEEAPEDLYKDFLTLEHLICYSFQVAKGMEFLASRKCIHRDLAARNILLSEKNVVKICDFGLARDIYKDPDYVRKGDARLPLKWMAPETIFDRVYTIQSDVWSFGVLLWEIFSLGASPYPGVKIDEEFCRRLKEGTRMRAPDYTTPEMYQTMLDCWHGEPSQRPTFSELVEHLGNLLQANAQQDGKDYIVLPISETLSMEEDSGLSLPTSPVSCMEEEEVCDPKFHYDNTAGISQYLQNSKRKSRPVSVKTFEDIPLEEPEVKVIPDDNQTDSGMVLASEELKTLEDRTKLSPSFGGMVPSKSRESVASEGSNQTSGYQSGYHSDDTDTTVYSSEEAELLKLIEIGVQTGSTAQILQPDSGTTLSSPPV

Turning to `CCn1c(=O)[nH]c2ccccc21`, the Activity in [1] is listed as 58%; in [2], 21%; in [3], 21%; in assay [4], 59%.
On to `C[S+]([O-])c1ccc(-c2nc(-c3ccc(F)cc3)c(-c3ccncc3)[nH]2)cc1` (configuration not stated) [SB-203580], for which the “fold change (FC)” value in assay [5] is recorded as 2.5.
With `COc1cc2ncnc(Nc3cccc(Cl)c3)c2cc1OC` [TYRPHOSTIN AG-1478], the Activity in assay [6] amounted to 52%.
The term IC50 denotes the concentration that gives 50% inhibition. For the compound `CC(C)Oc1ccc(-c2cnc3c(-c4ccnc5ccccc45)cnn3c2)cc1`, the EC100 in assay [7] is 0.2 µM. Besides, in [8], the IC50 came to 100 nM.
`c1cc(-c2cnn3cc(-c4ccc(OCCN5CCCCC5)cc4)cnc23)ccn1` [DORSOMORPHIN]: the IC50 in [9] stood at 10000 nM; in assay [10], 220 nM. Further, the EC100 in [7] came to 2.5 µM.
In the case of `c1ccc2c(-c3cnn4cc(-c5ccc(N6CCNCC6)cc5)cnc34)ccnc2c1`, the EC100 in assay [7] came to 3 µM.

Source of the values: ChEMBL document CHEMBL3745593, “Medicinal Chemistry Approaches to Heart Regeneration” (J Med Chem, 2015).
